According to ChEMBL document CHEMBL1121499, “Experimental antiulcer drugs.4. 1,3-Disubstituted 2,4,5,6-tetrahydro-4,6,6 -trimethyl-2-phenylcyclopenta[c]pyrrole-4-carboxamides” (J Med Chem, 1980):

Test system: Rattus norvegicus
Assay: Tested for gastric antisecretory activity in the pyloric ligated rat by observing the pH of gastric contents at dose 100 mg/kg orally 1 hr prior to the 5-h pyloric ligation period
Type: ADME, organism-based, Stomach
Parameters: dose 100 mg/kg, route oral
Settings: in vivo, po

| Compound | pH |
| --- | --- |
| CC1(C)CC(C)(C(N)=O)c2c1c(C=O)n(-c1ccccc1)c2C=O (stereo not drawn) | 1.2 |
| Cc1c2c(c(CO)n1-c1ccccc1)C(C)(C)CC2(C)C(N)=O (stereo not drawn) | 5.7 |
| Cc1c2c(c(C)n1-c1ccccc1)C(C)(C(N)=O)CC2(C)C (stereo not drawn) | 6.2 |
| Cc1c2c(c(C=O)n1-c1ccccc1)C(C)(C(N)=O)CC2(C)C (stereo not drawn) | 1.2 |
| Cc1c2c(c(CO)n1-c1ccccc1)C(C)(C(N)=O)CC2(C)C (stereo not drawn) | 7 |
| Cc1c2c(c(C=O)n1-c1ccccc1)C(C)(C)CC2(C)C(N)=O (stereo not drawn) | 1.5 |

Further lines, results first:

| pH | Compound |
| --- | --- |
| 1.5 | CC1(C)CC(C)(C(N)=O)c2cn(-c3ccccc3)c(C=O)c21 (stereo not drawn) |
| 2.6 | Cc1c2c(cn1-c1ccccc1)C(C)(C(N)=O)CC2(C)C (stereo not drawn) |
| 6.4 | CC1(C)CC(C)(C(N)=O)c2cn(-c3ccccc3)c(CO)c21 (stereo not drawn) |

Test system: Rattus norvegicus
Assay: Tested for gastric antisecretory activity in the pyloric ligated rat by observing the pH of gastric contents at dose 100 mg/kg orally 1 h prior to the 5-h pyloric ligation period; Inactive
Type: organism-based, Stomach
Parameters: dose 100 mg/kg, route oral
Settings: in vivo, po

| pH | Compound |
| --- | --- |
| 1.2 | Cc1c2c(cn1-c1ccccc1)C(C)(C)CC2(C)C(N)=O (stereo not drawn) |

Test system: Rattus norvegicus
Assay: Tested for gastric antisecretory activity in the pyloric ligated rat by observing the pH of gastric contents at dose 100 mg/kg orally 1 hr prior to the 5-h pyloric ligation period; pH < 2 is inactive
Type: ADME, organism-based, Stomach
Parameters: dose 100 mg/kg, route oral
Settings: in vivo, po

| pH | Compound |
| --- | --- |
| 1.1 | CC1(C)CC(C)(C(N)=O)c2cn(-c3ccccc3)cc21 (stereo not drawn) |
| 1.1 | CCc1c2c(c(CC)n1-c1ccccc1)C(C)(C(N)=O)CC2(C)C (stereo not drawn) |
| 1.2 | CC1(C)CC(C)(C(N)=O)c2c1c(CO)n(-c1ccccc1)c2CO (stereo not drawn) |
